Experimental data published in ChEMBL document CHEMBL3102715, “Synthesis and anti-rhinovirus activity of novel 3-[2-(pyridinyl)vinyl]substituted -2H-chromenes and -4H-chromen-4-ones” (Bioorg Med Chem, 2014).
Activity calls are given as the source filed them. The calls are words filed in the database; no cut-off is given here.

What was measured:
rhinovirus B14 [1] = experiment: Antiviral activity against HRV 14 infected in human HeLa cells assessed as reduction in plaque number after 3 days by neutral red assay; format: functional, organism-based; settings: Rhinovirus B, 72 h
rhinovirus A1B [2] = experiment: Antiviral activity against HRV 1B infected in human HeLa cells assessed as reduction in plaque number after 3 days by neutral red assay; format: functional, organism-based, Human rhinovirus 1B; settings: Rhinovirus A, 72 h
[3] = Selectivity index, ratio of CC50 for human HeLa cells to IC50 for HRV 14 infected in human HeLa cells; format: functional
[4] = Selectivity index, ratio of CC50 for human HeLa cells to IC50 for HRV 1B infected in human HeLa cells; format: functional
[5] = Cytotoxicity against human HeLa cells assessed as reduction in cell viability after 3 days by XTT assay; format: cell-based; settings: for MNTC at 72 h: read-out: MNCC
rhinovirus B14 [6] = experiment: Antiviral activity against HRV 14 infected in human HeLa cells assessed as log reduction in infectivity at 58 uM after 10 hrs by plaque assay at pH 5.0 relative to control; format: functional
rhinovirus B14 [7] = experiment: Antiviral activity against HRV 14 infected in human HeLa cells assessed as inhibition of viral yield at 58 uM treated at 1 hr after virus adsorption period measured after 10 hrs by plaque assay relative to control; format: functional; settings: Rhinovirus B
rhinovirus B14 [8] = experiment: Antiviral activity against HRV 14 infected in human HeLa cells assessed as inhibition of viral yield compound treated at 58 uM during 1 hr at 4 degC followed by compound washout by plaque assay; format: functional; settings: Rhinovirus B
rhinovirus A1B [9] = experiment: Antiviral activity against HRV 1B infected in human HeLa cells assessed as inhibition of viral yield at 43 uM treated at 1 hr after virus adsorption period measured after 10 hrs by plaque assay relative to control; format: functional, Human rhinovirus 1B; settings: Rhinovirus A
rhinovirus A1B [10] = experiment: Antiviral activity against HRV 1B infected in human HeLa cells assessed as log reduction in infectivity at 43 uM after 10 hrs by plaque assay at 56 degC relative to control; format: functional, Human rhinovirus 1B
rhinovirus A1B [11] = experiment: Antiviral activity against HRV 1B infected in human HeLa cells assessed as inhibition of viral yield at 43 uM treated during 10 hrs multiplication period by plaque assay relative to control; format: functional, Human rhinovirus 1B; settings: Rhinovirus A
rhinovirus B14 [12] = experiment: Antiviral activity against HRV 14 infected in human HeLa cells assessed as inhibition of viral yield compound treated at 58 uM prior to 1 hr incubated at 4 degC followed by 10 hrs at 33 degC infection period by plaque assay; format: functional
rhinovirus B14 [13] = experiment: Antiviral activity against HRV 14 infected in human HeLa cells assessed as reduction of viral yield at 58 uM treated 4 hrs post infection measured after 10 hrs by plaque assay; format: functional, organism-based
rhinovirus A1B [14] = experiment: Antiviral activity against HRV 1B infected in human HeLa cells assessed as inhibition of viral yield compound treated at 43 uM during 1 hr at 4 degC followed by compound washout by plaque assay; format: functional, Human rhinovirus 1B; settings: Rhinovirus A
rhinovirus A1B [15] = experiment: Antiviral activity against HRV 1B infected in human HeLa cells assessed as reduction of viral yield at 43 uM treated 2 hrs post infection measured after 10 hrs by plaque assay; format: functional, organism-based; settings: Human rhinovirus 1B
rhinovirus B14 [16] = experiment: Antiviral activity against HRV 14 infected in human HeLa cells assessed as maximal reduction of viral yield at 58 uM treated 6 hrs post adsorption period measured after 10 hrs by plaque assay; format: functional, organism-based
rhinovirus B14 [17] = experiment: Antiviral activity against HRV 14 infected in human HeLa cells assessed as inhibition of viral yield at 58 uM treated during 10 hrs multiplication period by plaque assay relative to control; format: functional; settings: Rhinovirus B
rhinovirus A1B [18] = experiment: Antiviral activity against HRV 1B infected in human HeLa cells assessed as maximal reduction of viral yield at 43 uM treated 4 hrs post adsorption period measured after 10 hrs by plaque assay; format: functional, organism-based; settings: Human rhinovirus 1B
rhinovirus A1B [19] = experiment: Antiviral activity against HRV 1B infected in human HeLa cells assessed as inhibition of viral yield compound treated at 43 uM for 1 hr prior infection followed by compound wash-out by plaque assay; format: functional, Human rhinovirus 1B; settings: Rhinovirus A
rhinovirus B14 [20] = experiment: Antiviral activity against HRV 14 infected in human HeLa cells assessed as half-maximal reduction of viral yield at 58 uM treated 1 hr post adsorption period measured after 10 hrs by plaque assay; format: functional, organism-based
rhinovirus A1B [21] = experiment: Antiviral activity against HRV 1B infected in human HeLa cells assessed as inhibition of viral yield compound treated at 43 uM prior to 1 hr incubated at 4 degC followed by 10 hrs at 33 degC infection period by plaque assay; format: functional, Human rhinovirus 1B
rhinovirus A1B [22] = experiment: Antiviral activity against HRV 1B infected in human HeLa cells assessed as half-maximal reduction of viral yield at 43 uM treated 45 mins post adsorption period measured after 10 hrs by plaque assay; format: functional, organism-based; settings: Human rhinovirus 1B
rhinovirus B14 [23] = experiment: Antiviral activity against HRV 14 infected in human HeLa cells assessed as inhibition of viral yield compound treated at 58 uM for 1 hr prior infection followed by compound wash-out by plaque assay; format: functional; settings: Rhinovirus B
rhinovirus B14 [24] = experiment: Antiviral activity against HRV 14 infected in human HeLa cells assessed as log reduction in infectivity at 58 uM after 10 hrs by plaque assay at 56 degC relative to control; format: functional
rhinovirus A1B [25] = experiment: Antiviral activity against HRV 1B infected in human HeLa cells assessed as log reduction in infectivity at 43 uM after 10 hrs by plaque assay at pH 5.0 relative to control; format: functional, Human rhinovirus 1B
rhinovirus A1B [26] = experiment: Antiviral activity against HRV 1B infected in human HeLa cells assessed as reduction in plaque number at maximum non-cytotoxic concentration after 3 days by neutral red assay; format: functional, Human rhinovirus 1B; parameters: scale not given: the % may be the effect or the level left

SMILES | IC50 (rhinovirus B14 [1]) | IC50 (rhinovirus A1B [2]) | Ratio CC50/IC50 [3] | Ratio CC50/IC50 [4] | CC50 at 72 h [5] | MNTC at 72 h [5] | other results
C1=C(/C=C/c2ccncc2)COc2ccccc21 | 3.03 µM | 1.96 µM | 24.75 | 38.26 | 75 µM | 50 µM | –
C1=C(/C=C\c2cccnc2)COc2ccccc21 | 9.37 µM | 0.98 µM | 4 | 38.26 | 37.5 µM | 25 µM | –
C1=C(/C=C\c2ccncc2)COc2ccccc21 | 2.9 µM | 0.71 µM | 17.24 | 70.42 | 50 µM | 25 µM | –
O=c1c(/C=C\c2cccnc2)coc2ccc(Cl)cc12 | 10.1 µM | 4.26 µM | 4.94 | 11.74 | 50 µM | 25 µM | –
Clc1ccc2c(c1)C=C(/C=C/c1ccncc1)CO2 | 6.71 µM | 4.74 µM | 11.17 | 15.82 | 75 µM | 50 µM | –
O=c1c(/C=C/c2ccccn2)coc2ccccc12 | 7.08 µM | 5.15 µM | >28.25 | >38.84 | > 200 µM | > 200 µM | –
Clc1ccc2c(c1)C=C(/C=C/c1ccccn1)CO2 | 8.96 µM | 1.69 µM | >5.58 | >29.59 | > 50 µM | > 50 µM | –
O=c1c(/C=C/c2ccncc2)coc2ccc(Cl)cc12 | 15.6 µM | 19.1 µM | 9.6 | 7.87 | 150 µM | 100 µM | –
C1=C(/C=C/c2ccccn2)COc2ccccc21 | 2.93 µM | 1.7 µM | >17.06 | >29.41 | > 50 µM | > 50 µM | FC (rhinovirus B14 [6]): 0.9; inhibition at 58 µM (rhinovirus B14 [7]): 90%; inhibition at 58 µM (rhinovirus B14 [8]): 16%; inhibition at 43 µM (rhinovirus A1B [9]): 90%; FC (rhinovirus A1B [10]): 1.1; inhibition at 43 µM (rhinovirus A1B [11]): 90%; inhibition (INH) (rhinovirus B14 [12]): 90%; Activity (rhinovirus B14 [13]): inactive; inhibition at 43 µM (rhinovirus A1B [14]): 14%; Activity (rhinovirus A1B [15]): inactive; Activity (rhinovirus B14 [16]): Active; inhibition at 58 µM (rhinovirus B14 [17]): 90%; Activity (rhinovirus A1B [18]): Active; inhibition at 43 µM (rhinovirus A1B [19]): 24%; Activity (rhinovirus B14 [20]): Active; inhibition (INH) (rhinovirus A1B [21]): 90%; Activity (rhinovirus A1B [22]): Active; inhibition at 58 µM (rhinovirus B14 [23]): 1%; FC (rhinovirus B14 [24]): 0.9; FC (rhinovirus A1B [25]): 1
O=c1c(/C=C\c2cccnc2)coc2ccccc12 | 15.4 µM | 46.8 µM | >12.98 | >4.28 | > 200 µM | > 200 µM | –
O=c1c(/C=C/c2ccccn2)coc2ccc(Cl)cc12 | 5.1 µM | 1.6 µM | >9.8 | >31.25 | > 50 µM | > 50 µM | –
Clc1ccc2c(c1)C=C(/C=C/c1cccnc1)CO2 | 4.27 µM | 4.34 µM | 8.78 | 8.64 | 37.5 µM | 25 µM | –
O=c1c(/C=C/c2ccncc2)coc2ccccc12 | 92.1 µM | > 100 µM | >1.08 | – | > 100 µM | > 100 µM | Activity (rhinovirus A1B [26]): 22%
C1=C(/C=C/c2cccnc2)COc2ccccc21 | 3.88 µM | 4.57 µM | 19.33 | 16.41 | 75 µM | 25 µM | –
